According to PubChem BioAssay AID248 (DTP/NCI, 2004):
Several values for one entry are separate records, joined by “and”; a condition that tells them apart may be missing. Identical values can stand only once. Inconclusive results and toxic doses are left out. Cut-off read from the data, not from the text of the source: active = T/C of 150% or more; inactive = T/C below 125%.

Test system: L1210 leukemia ip in BDF1 mice, survival T/C
Assay: NCI In Vivo Anticancer Drug Screen. Data for tumor model L1210 Leukemia (intraperitoneal) in B6D2F1 (BDF1) mice
Conditions: endpoint: mean survival time, higher = longer survival
How it was run: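 Mice bearing the transplanted tumor received compound or vehicle. Survival of the treated group was divided by that of the vehicle-treated control group to give the ratio.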

[1] = dose: 100.0 mg/kg/injection, schedule: Q04DX002 (ip), vehicle: Klucel (hydroxypropylcellulose) (HPC)
[2] = dose: 200.0 mg/kg/injection, schedule: Q04DX002 (ip), vehicle: Klucel (hydroxypropylcellulose) (HPC)
[3] = dose: 400.0 mg/kg/injection, schedule: Q04DX002 (ip), vehicle: Klucel (hydroxypropylcellulose) (HPC)
[4] = dose: 100.0 mg/kg/injection, schedule: Q01DX009 (ip), vehicle: saline with Tween-80
[5] = dose: 200.0 mg/kg/injection, schedule: Q01DX009 (ip), vehicle: saline with Tween-80
[6] = dose: 400.0 mg/kg/injection, schedule: Q01DX009 (ip), vehicle: saline with Tween-80
[7] = dose: 100.0 mg/kg/injection, schedule: Q04DX003 (ip), vehicle: saline with Tween-80
[8] = dose: 200.0 mg/kg/injection, schedule: Q04DX003 (ip), vehicle: saline with Tween-80
[9] = dose: 400.0 mg/kg/injection, schedule: Q04DX003 (ip), vehicle: saline with Tween-80

Measured: T/C

COc1ccc2nccc(/C=C/CC3CCN(C(C)=O)CC3)c2c1
inactive: dose: 12.5 mg/kg/injection, schedule: Q01DX009 (ip), vehicle: saline 98 % of control | dose: 12.5 mg/kg/injection, schedule: Q04DX003 (ip), vehicle: Klucel (hydroxypropylcellulose) (HPC) 103 % of control | dose: 25.0 mg/kg/injection, schedule: Q01DX009 (ip), vehicle: saline 96 % of control | dose: 25.0 mg/kg/injection, schedule: Q04DX003 (ip), vehicle: Klucel (hydroxypropylcellulose) (HPC) 107 % of control | dose: 50.0 mg/kg/injection, schedule: Q01DX009 (ip), vehicle: saline 101 % of control | dose: 50.0 mg/kg/injection, schedule: Q04DX003 (ip), vehicle: Klucel (hydroxypropylcellulose) (HPC) 103 % of control | dose: 100.0 mg/kg/injection, schedule: Q04DX003 (ip), vehicle: saline 102 % of control

OCCOc1ccc(Br)cc1
inactive: [1] 92 % of control | [2] 95 % of control | [3] 92 % of control

Nc1ncc(N=O)c(=O)[nH]1
inactive: [1] 96 % of control | [2] 99 % of control | [3] 96 % of control and 101 % of control

COc1ccccc1OC(=O)Nc1ccccc1F
inactive: [4] 97 % of control | [5] 96 % of control | [6] 118 % of control

CC1C(C(=O)c2ccc(-c3ccccc3)cc2)N1C(C)(C)C (stereo unspecified)
inactive: dose: 100.0 mg/kg/injection, schedule: Q01DX001 (ip), vehicle: Klucel (hydroxypropylcellulose) (HPC) 87 % of control | dose: 200.0 mg/kg/injection, schedule: Q01DX001 (ip), vehicle: Klucel (hydroxypropylcellulose) (HPC) 93 % of control | dose: 400.0 mg/kg/injection, schedule: Q01DX001 (ip), vehicle: Klucel (hydroxypropylcellulose) (HPC) 94 % of control

O=C(NNC(=O)c1ccc(Cl)cc1)Nc1ccc(F)c(Cl)c1
inactive: dose: 100.0 mg/kg/injection, schedule: Q01DX009 (ip), vehicle: Klucel (hydroxypropylcellulose) (HPC) 97 % of control | dose: 200.0 mg/kg/injection, schedule: Q01DX009 (ip), vehicle: Klucel (hydroxypropylcellulose) (HPC) 104 % of control | dose: 400.0 mg/kg/injection, schedule: Q01DX009 (ip), vehicle: Klucel (hydroxypropylcellulose) (HPC) 100 % of control

CC(C(O)c1ccc(Cl)cc1)C(O)(C(F)(F)F)C(F)(F)F (stereo unspecified)
inactive: dose: 75.0 mg/kg/injection, schedule: Q01DX009 (ip), vehicle: saline with Tween-80 100 % of control | dose: 150.0 mg/kg/injection, schedule: Q01DX009 (ip), vehicle: saline with Tween-80 110 % of control | dose: 300.0 mg/kg/injection, schedule: Q01DX009 (ip), vehicle: saline with Tween-80 101 % of control

COc1ccc(C(=O)C(C)C(C)=O)c(OCc2ccccc2)c1OC (stereo unspecified)
inactive: dose: 100.0 mg/kg/injection, schedule: Q01DX001 (ip), vehicle: carboxymethylcellulose (CMC) 96 % of control | dose: 200.0 mg/kg/injection, schedule: Q01DX001 (ip), vehicle: carboxymethylcellulose (CMC) 98 % of control | dose: 400.0 mg/kg/injection, schedule: Q01DX001 (ip), vehicle: carboxymethylcellulose (CMC) 93 % of control

CN(C)CC/C=C1\c2ccccc2Sc2ccc(Cl)cc21
inactive: dose: 0.04 mg/kg/injection, schedule: Q03HX024 (ip), vehicle: saline 107 % of control | dose: 0.09 mg/kg/injection, schedule: Q03HX024 (ip), vehicle: saline 105 % of control | dose: 0.18 mg/kg/injection, schedule: Q03HX024 (ip), vehicle: saline 102 % of control | dose: 0.36 mg/kg/injection, schedule: Q01DX001 (ip), vehicle: Klucel (hydroxypropylcellulose) (HPC) 102 % of control | dose: 0.37 mg/kg/injection, schedule: Q03HX024 (ip), vehicle: saline 105 % of control | dose: 0.73 mg/kg/injection, schedule: Q01DX001 (ip), vehicle: Klucel (hydroxypropylcellulose) (HPC) 97 % of control | dose: 0.74 mg/kg/injection, schedule: Q03HX024 (ip), vehicle: saline 107 % of control | dose: 1.46 mg/kg/injection, schedule: Q01DX001 (ip), vehicle: Klucel (hydroxypropylcellulose) (HPC) 108 % of control | dose: 1.49 mg/kg/injection, schedule: Q03HX024 (ip), vehicle: Klucel (hydroxypropylcellulose) (HPC) 103 % of control | dose: 2.92 mg/kg/injection, schedule: Q01DX001 (ip), vehicle: Klucel (hydroxypropylcellulose) (HPC) 105 % of control | dose: 3.8 mg/kg/injection, schedule: Q01DX001 (ip), vehicle: Klucel (hydroxypropylcellulose) (HPC) 107 % of control | dose: 3.9 mg/kg/injection, schedule: Q01DX009 (ip), vehicle: Klucel (hydroxypropylcellulose) (HPC) 105 % of control | dose: 5.6 mg/kg/injection, schedule: Q01DX001 (ip), vehicle: saline 101 % of control | dose: 5.85 mg/kg/injection, schedule: Q01DX001 (ip), vehicle: Klucel (hydroxypropylcellulose) (HPC) 105 % of control | dose: 7.5 mg/kg/injection, schedule: Q01DX001 (ip), vehicle: Klucel (hydroxypropylcellulose) (HPC) 104 % of control | dose: 7.81 mg/kg/injection, schedule: Q01DX009 (ip), vehicle: Klucel (hydroxypropylcellulose) (HPC) 92 % of control | dose: 11.25 mg/kg/injection, schedule: Q01DX001 (ip), vehicle: saline 104 % of control | dose: 15.0 mg/kg/injection, schedule: Q01DX001 (ip), vehicle: Klucel (hydroxypropylcellulose) (HPC) 107 % of control | dose: 15.62 mg/kg/injection, schedule: Q01DX009 (ip), vehicle: Klucel (hydroxypropylcellulose) (HPC) 110 % of control | dose: 22.5 mg/kg/injection, schedule: Q01DX001 (ip), vehicle: saline 101 % of control | dose: 23.43 mg/kg/injection, schedule: Q01DX001 (ip), vehicle: Klucel (hydroxypropylcellulose) (HPC) 121 % of control | dose: 30.0 mg/kg/injection, schedule: Q01DX001 (ip), vehicle: Klucel (hydroxypropylcellulose) (HPC) 112 % of control | dose: 31.25 mg/kg/injection, schedule: Q01DX009 (ip), vehicle: Klucel (hydroxypropylcellulose) (HPC) 108 % of control | dose: 31.25 mg/kg/injection, schedule: Q04DX003 (ip), vehicle: Klucel (hydroxypropylcellulose) (HPC) 107 % of control

Cc1ccc(S(=O)(=O)N/N=C/C(Br)=C(/Br)C(=O)O)cc1
inactive: dose: 6.25 mg/kg/injection, schedule: Q01DX009 (ip), vehicle: Klucel (hydroxypropylcellulose) (HPC) 106 % of control | dose: 12.5 mg/kg/injection, schedule: Q01DX009 (ip), vehicle: Klucel (hydroxypropylcellulose) (HPC) 109 % of control | dose: 25.0 mg/kg/injection, schedule: Q01DX009 (ip), vehicle: Klucel (hydroxypropylcellulose) (HPC) 111 % of control | dose: 50.0 mg/kg/injection, schedule: Q01DX009 (ip), vehicle: Klucel (hydroxypropylcellulose) (HPC) 124 % of control

Nc1ncnc2nc(-c3ccc(Cl)cc3Cl)[nH]c12
inactive: dose: 6.25 mg/kg/injection, schedule: Q01DX001 (ip), vehicle: saline with Tween-80 101 % of control | dose: 12.5 mg/kg/injection, schedule: Q01DX001 (ip), vehicle: saline with Tween-80 106 % of control | dose: 25.0 mg/kg/injection, schedule: Q01DX001 (ip), vehicle: saline with Tween-80 98 % of control

CC1CCOS(=O)O1 (stereo unspecified)
inactive: dose: 20.0 mg/kg/injection, schedule: Q01DX010 (ip), vehicle: saline 96 % of control and 98 % of control | dose: 24.0 mg/kg/injection, schedule: Q01DX Z (ip), vehicle: carboxymethylcellulose (CMC) 104 % of control and 92 % of control | dose: 36.0 mg/kg/injection, schedule: Q01DX Z (ip), vehicle: carboxymethylcellulose (CMC) 95 % of control and 109 % of control | dose: 40.0 mg/kg/injection, schedule: Q01DX010 (ip), vehicle: saline 95 % of control and 96 % of control | dose: 50.0 mg/kg/injection, schedule: Q01DX001 (ip), vehicle: saline 98 % of control | dose: 54.0 mg/kg/injection, schedule: Q01DX Z (ip), vehicle: carboxymethylcellulose (CMC) 101 % of control and 111 % of control | dose: 80.0 mg/kg/injection, schedule: Q01DX010 (ip), vehicle: saline 98 % of control and 104 % of control | dose: 81.0 mg/kg/injection, schedule: Q01DX Z (ip), vehicle: carboxymethylcellulose (CMC) 96 % of control and 104 % of control | dose: 100.0 mg/kg/injection, schedule: Q01DX001 (ip), vehicle: saline 98 % of control and 102 % of control | dose: 200.0 mg/kg/injection, schedule: Q01DX001 (ip), vehicle: saline 104 % of control

CN(C)C(=S)Oc1ccc(OC(=S)N(C)C)cc1
inactive: [7] 100 % of control | [8] 95 % of control | [9] 100 % of control

O=[N+]([O-])c1cccnc1Oc1cc(Cl)c(Cl)cc1Cl
inactive: [4] 107 % of control | [7] 102 % of control | [5] 107 % of control | [8] 93 % of control | [6] 100 % of control | [9] 91 % of control

O=C(O)c1ccc(C(=O)Nc2cccc3ccccc23)c(C(=O)O)c1
inactive: [1] 106 % of control | [2] 103 % of control | [3] 103 % of control
